The IC50 is the concentration at which inhibition is half-maximal. Low values mean greater potency in that assay, high ones weaker potency in that assay.

The test addresses T1, human mPGES-1 (Homo sapiens, UniProt O14684).
T1 sequence (O14684 1-152): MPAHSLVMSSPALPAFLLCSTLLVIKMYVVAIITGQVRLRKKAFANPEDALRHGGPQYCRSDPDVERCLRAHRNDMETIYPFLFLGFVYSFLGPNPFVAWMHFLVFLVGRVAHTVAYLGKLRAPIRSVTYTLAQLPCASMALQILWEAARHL
Put plainly: Microsomal prostaglandin E synthase biochemical assay. To be noted: microsome preparation containing human mPGES-1; PGH2 10.8 μM, GSH 2.5 mM, pH 6.8; PGE2 by HTRF; average of at least n=2. The protocol:
Compounds were tested as inhibitors of microsomal prostaglandin E synthase activity in microsomal prostaglandin E synthase assays and whole cell assays. These assays measure prostaglandin E2 (PGE2) synthesis which is taken as a measure of prostaglandin E synthase activity. Microsomal prostaglandin E synthase biochemical assays used microsomal prostaglandin E synthase-1 in microsomal preparations. The source of the microsomes can be for example interleukin-1β-stimulated human A549 cells (which express human mPGES-1) or Sf9 cells transfected with plasmids encoding human mPGES-1 cDNA. The whole blood assay [described by Patrignani, P. et al., Journal of Pharmacology and Experimental Therapeutics, 1994, vol. 271, pp 1705-1712] was used as the whole cell assay for testing the compounds. Whole blood provides a protein and cell rich milieu for the study of biochemical efficacy of anti-inflammatory compounds such as prostaglandin synthase inhibitors. To study the inhibitory activities of these compounds, human blood was stimulated with lipopolysaccharide (LPS) for typically 16 hours to induce mPGES-1 expression, after which the concentration of produced PGE2 was measured by competitive-immuno assay (homogeneous time-resolved fluorescence, HTRF) as read out for effectiveness against mPGES-1-dependent PGE2 production.
Microsomal Prostaglandin E Synthase Biochemical Assay
A solution of test compound was added to a diluted microsome preparation containing human mPGES-1 and pre-incubated for 15 minutes in potassium phosphate buffer pH 6.8 with cofactor glutathione (GSH). Corresponding solutions without test compound were used as positive controls, and corresponding solutions without test compound and without microsomes were used as negative controls. The enzymatic reaction was then started by addition of the substrate PGH2 in an organic solution (dry acetonitrile).
The typical reaction conditions of the enzymatic reaction were thus: Test compound: ranging from 60 μM to 0.002 μM, or zero in positive and negative controls; potassium phosphate buffer pH 6.8: 50 mM; GSH: 2.5 mM; mPGES-1-containing microsomes: 2 μg/mL (sample and positive controls) or 0 μg/mL (negative control); PGH2: 10.8 μM; Acetonitrile: 7.7% (v/v); DMSO: 0.6% (v/v). The reaction was stopped after one minute by adding an acidic solution (pH 1.9) of ferric chloride and citrate (final concentrations 7 mM and 47 mM respectively), by which the PGH2 was sequestered (the PGH2 is reduced to mainly 12-hydroxy heptadecatrineoic acid (12-HHT) which is not detected by the subsequent PGE2 detection step). The resulting solution was then pH neutralized by addition of potassium phosphate buffer, prior to diluting an aliquot of the resulting solution in a weak potassium phosphate buffer (50 mM, pH 6.8) containing 0.2% BSA (w/v). [Adapted from Jacobsson et al., Proc. Natl. Acad. Sci. USA, 1999, vol. 96, pp. 7220-7225]The PGE2 formed was quantified by use of a commercial HTRF based kit (catalogue #62PG2PEC or #62P2APEC from Cisbio International). 100% activity was defined as the PGE2 production in positive controls subtracted by the PGE2 production in the negative controls. IC50 values were then determined using standard procedures.
The potency is expressed as IC50 and the value indicated is an average of at least n=2.
(In general: Time-resolved FRET reads energy transfer from a long-lived donor to a nearby acceptor.)
For `NS(=O)(=O)c1cc(F)ccc1NS(=O)(=O)/C=C/c1ccc(Br)cc1` [Example 102, 2-[[(E)-2-(4-Bromophenyl)ethenyl]sulfonylamino]-5-fluoro-benzenesulfonamide], the midpoint of inhibition, the IC50, lay at 850 nM.
The value for `NS(=O)(=O)c1ccccc1NS(=O)(=O)c1ccc(Oc2ncc(C(F)(F)F)cc2Cl)cc1` [Example 125, 2-[[4-[3-Chloro-5-(trifluoromethyl)pyridin-2-yl]oxyphenyl]sulfonylamino]benzenesulfonamide] was 7200 nM; that for `COc1ccccc1CCS(=O)(=O)Nc1ccccc1S(N)(=O)=O` [Example 109, 2-[2-(2-Methoxyphenyl)ethylsulfonylamino]benzenesulfonamide] was 6100 nM.
The value for `NS(=O)(=O)c1ccccc1NS(=O)(=O)c1cccc(Cl)c1Cl` [Example 149, 2,3-Dichloro-N-(2-sulfamoylphenyl)benzenesulfonamide] was 650 nM; that for `NS(=O)(=O)c1cc(OCc2ccccn2)ccc1NS(=O)(=O)CCc1ccc(Cl)cc1` [Example 46, 2-[2-(4-Chlorophenyl)ethylsulfonylamino]-5-(pyridin-2-ylmethoxy)benzenesulfonamide] was 1100 nM.
The value for `NS(=O)(=O)c1ccccc1NS(=O)(=O)CCc1ccc(Br)cc1` [Example 107, 2-[(E)-2-(4-Bromophenyl)ethylsulfonylamino]benzenesulfonamide] was 140 nM.
In turn, `NS(=O)(=O)c1cc(Cl)c(F)cc1NS(=O)(=O)CCc1ccc(Cl)c(Cl)c1` [Example 233, 5-Chloro-2-(2-(3,4-dichlorophenyl)ethylsulfonamido)-4-fluorobenzenesulfonamide] showed an IC50 of 150 nM.
Turning to `NS(=O)(=O)c1cc(F)c(F)cc1NS(=O)(=O)c1cccc(Cl)c1Cl` [Example 178, 2,3-Dichloro-N-(4,5-difluoro-2-sulfamoylphenyl)benzenesulfonamide], the IC50 was determined as 2700 nM.
The figure for `COc1ccc(-c2cccc(S(=O)(=O)Nc3ccccc3S(N)(=O)=O)c2)cn1` [Example 138, 3-(6-Methoxypyridin-3-yl)-N-(2-sulfamoylphenyl)benzenesulfonamide] is 570 nM.
`NS(=O)(=O)c1cc(F)ccc1NS(=O)(=O)/C=C/c1ccc(C(F)(F)F)cc1` [Example 101, 5-Fluoro-2-[[(E)-2-[4-(trifluoromethyl)phenyl]ethenyl]sulfonylamino]-benzenesulfonamide]: the IC50 was 1600 nM. This IC50 lies about 2.8-fold higher than the previous one.
The figure for `NS(=O)(=O)c1ccc(F)cc1NS(=O)(=O)CCc1ccc2ccccc2c1` [Example 111, 4-Fluoro-2-(2-naphthalen-2-ylethylsulfonylamino)benzenesulfonamide] is 760 nM.
`Cc1nc(-c2cccc(S(=O)(=O)Nc3ccccc3S(N)(=O)=O)c2)cs1` [Example 191, 3-(2-Methylthiazol-4-yl)-N-(2-sulfamoylphenyl)benzenesulfonamide] registered an IC50 of 8300 nM.
The figure for `N#Cc1ccc(/C=C/S(=O)(=O)Nc2ccccc2S(N)(=O)=O)cc1` [Example 33, 2-[[(E)-2-(4-Cyanophenyl)ethenyl]sulfonylamino]benzenesulfonamide] is 1100 nM; for `NS(=O)(=O)c1ccccc1NS(=O)(=O)c1cccc(-c2cccc(OC(F)(F)F)c2)c1` [Example 121, 2-[[3-[3-(Trifluoromethoxy)phenyl]phenyl]sulfonylamino]benzenesulfonamide] it is 220 nM; for `NS(=O)(=O)c1ccccc1NS(=O)(=O)/C=C/c1ccc(Cl)cc1` [Example 73, 2-[[(E)-2-(4-Chlorophenyl)ethenyl]sulfonylamino]benzenesulfonamide] it is 290 nM.
The figure for `NS(=O)(=O)c1cc(Cl)ccc1NS(=O)(=O)c1cccc(Cl)c1Cl` [Example 195, 2,3-Dichloro-N-(4-chloro-2-sulfamoylphenyl)benzenesulfonamide] is 5500 nM.
The value for `NS(=O)(=O)c1cc(F)ccc1NS(=O)(=O)/C=C/c1ccccc1C(F)(F)F` [Example 100, 5-Fluoro-2-[[(E)-2-[2-(trifluoromethyl)phenyl]ethenyl]sulfonylamino]-benzenesulfonamide] was 4000 nM.

These data come from patent publication US20090163586A1, “Bis-(Sulfonylamino) Derivatives in Therapy 205” (AstraZeneca AB, priority 2007, published 2009).
